Residues, ends and D or L forms follow the SMILES beside them.
Test system: E. coli TOP10
Assay: microarray transcription profile of E. coli TOP10 expressing Novispirin G10 (pDRS5-novispirin, arabinose induced) relative to control strain pBAD gIII A
Type: cell-based, Escherichia coli
Protocol: In order to obtain a transcriptional profile of E. coli expressing Novispirin G10, 2×10 mL sterile LB media (10 g/L Bactotryptone, 5 g/L Yeast extract, and 10 g/L NaCl) containing 100 mg/L ampicillin was inoculated with E. coli TOP10 harbouring pDRS5-novispirin and pBAD gIII A, respectively. These cultures were grown overnight at 37° C. at 180 rpm. The overnight cultures were diluted 1/100 into fresh sterile RM media (2% Casamino Acids, 0.2% glycerol, 1 mM MgCl2, 0.1 mM thiamine, 6 g/L Na2HPO4, 3 g/L KH2PO4.2H2O, 0.5 g/L NaCl, 0.1 g/L NH4Cl at pH 7.4) supplemented with 100 mg/L ampicillin and 0.1% arabinose. 100 mL of each culture was grown at 37° C., 240 rpm for 4.5 hours before being harvested by poured into centrifugation tubes containing 10 mL pre-frozen milliQ water and immediate centrifugation at 4200 g for 15 minutes at 4° C. Immediately hereafter, the supernatant was decanted and the cell […] was frozen at −20° C. for storage until RNA preparation was initiated.
Total RNA was isolated from the two E. coli (expressing either Novispirin G10 or a control peptide) cultures by use of the High Pure RNA Isolation kit (Roche, cat #1 828 665) according to the manufacturers instructions. Residual DNA was removed on-column with RNase-free DNase. Labelled samples were prepared from 30 μg of total bacterial RNA. Fluorescent first strand cDNA was prepared by random primed reverse transcription (Superscript II; Life Technologies) by use of random hexamers for cDNA synthesis. 2 μl (20 μg) of random primer was mixed with 15 μl (30 μg) of total RNA, incubated for 5 min at 70° C., and cooled on ice. To each sample was added 5× first strand buffer (6 μl), 0.1 M DTT (3 μl), dNTP mix (5 mM dATP, dGTP and dTTP and 2 mM dCTP) (1 μl), RNaseOut (1 μl), Superscript II reverse transcriptase (2 μl) and Cy-dCTP (3 μl). Reverse transcription was carried out at 42° C. for 1 hr. RNA was removed by addition of 10 μl NaOH (1 M) and incubation at 65° C. for 10 min. The samples were neutralised by addition of 10 μl HCl (1 M). Cy3 and Cy5 cDNA samples were mixed and immediately purified with a GFX PCR DNA and Gel Band Purification Kit (Amersham Biosciences).
Slides were pre-hybridised at 42° C. for 45 min in a solution containing 4×SSC+0.5% SDS+1% BSA and dried by centrifugation. Hybridizations were in a volume of 25 μl under a supported cover slip at 42° C. for 16-18 h at high humidity. The hybridisation mixture was labelled cDNA in a formamide-based hybridisation buffer (MWG—supplied with the pan-arrays). Cover slip and supports were gently removed (2×SSC in a wash tray) and arrays were washed by immersion into 2×SSC+0.1% SDS for 5 min, 1×SSC+0.1% SDS for 5 min, 0.5×SSC for 5 min and 1× millipore water for 10 sec and dried by centrifugation. Slides were scanned on a GMS 418 scanner to detect Cy3 and Cy5 fluorescence. Data analysis was carried out using ImaGene 5.0 and GeneSight 3.5 from BioDiscovery (www.biodiscovery.com). Two biological replicate experiments with four replicate hybridisations in each experiment were carried out for generation of data.
Pan E. coli K12 Arrays from MWG Biotech were used in this study (lot No.: 020206). The 4239 E. coli K12 specific oligonucleotide probes present on this glass-based DNA chip represent the complete Escherichia coli (K12) genome
Gene expression data was analyzed using the GeneSight 4.1.5 software from BioDiscovery. Data was prepared using local background correction, removal of flagged spots (contaminated background or signal), floor value raising data to a minimum value of 20, calculation of ratio, log(2) transformation of ratios, print-tip lowess normalization, and finally combination of replicate spot.

[1] = confidence level of 90%, relative to control strain expressing a peptide without antimicrobial activity

CC[C@H](C)[C@H](NC(=O)CNC(=O)[C@H](CCCCN)NC(=O)[C@H](CCCNC(=N)N)NC(=O)[C@@H](NC(=O)[C@@H](NC(=O)[C@H](CCCNC(=N)N)NC(=O)[C@H](CCCNC(=N)N)NC(=O)[C@H](CC(C)C)NC(=O)[C@H](CC(N)=O)NC(=O)[C@@H](N)CCCCN)[C@@H](C)CC)[C@@H](C)CC)C(=O)N[C@@H](Cc1c[nH]cn1)C(=O)N[C@H](C(=O)N[C@H](C(=O)N[C@@H](CCCCN)C(=O)N[C@@H](CCCCN)C(=O)N[C@@H](Cc1ccc(O)cc1)C(=O)NCC(=O)O)[C@@H](C)CC)[C@@H](C)CC [Novispirin G10] (H-KNLRRIIRKGIHIIKKYG-OH; N-terminus assumed)
ratio, gene tra8_1: −4.3 | ratio, gene trpD: −3.4 | ratio, gene tsx: −3.3 | ratio, gene ugpA: 3.3 | ratio, gene uvrY: 3.3 | ratio, gene uxuB: 3.5 | ratio, gene vacJ: 3.0 | ratio, gene wcaD: −2.7 | ratio, gene wcaJ: −2.8 | ratio, gene wza: 3.3 | ratio, gene xasA: 24.9 | ratio, gene yaaI: 2.9 | ratio, gene yabI: −2.6 | ratio, gene yafC: −5.1 | ratio, gene yagT: 3.3 | ratio, gene yaiH: 6.1 | ratio, gene yaiP: −3.9 | ratio, gene ybaP: 8.4 | ratio, gene ybaS: 8.8 | ratio, gene ybaY: 9.9 | ratio, gene ybbN: −2.6 | ratio, gene ybbY: 4.4 | ratio, gene ybdS: 4.2 | ratio, gene ybeK: −3.0 | ratio, gene ybeL: 3.6 | ratio, gene ybfA: 3.5 | ratio, gene ybgA: 4.2 | ratio, gene ybhL: 9.3 | ratio, gene ybhP: −5.1 | ratio, gene ybhS: −2.6 | ratio, gene ybiU: −3.7 | ratio, gene ybiX: −2.7 | ratio, gene ybjC: −2.7 | ratio, gene ybjG: 5.8 | ratio, gene ybjN: −2.7 | ratio, gene ybjX: 5.3 | ratio, gene ycaC: 7.4 | ratio, gene ycbQ: −5.0 | ratio, gene yccD: 4.9 | ratio, gene yccM: 2.8 | ratio, gene ycdQ: −2.8 | ratio, gene ycfA: −3.4 | ratio, gene ycfH: 5.3 | ratio, gene ycfR: 2.8 | ratio, gene ycgB: 4.5 | ratio, gene ycgY: 3.0 | ratio, gene yciE: 5.4 | ratio, gene yciI: 5.1 | ratio, gene yciR: 6.5 | ratio, gene ycjF: −2.7 | ratio, gene yddM: 3.0 | ratio, gene ydhO: −2.8 | ratio, gene yeaG: 12.0 | ratio, gene yeaH: 2.8 | ratio, gene yeaP: −2.6 | ratio, gene yeaQ: 6.9 | ratio, gene yedU: 3.7 | ratio, gene yehT: −4.0 | ratio, gene yehX: 5.6 | ratio, gene yehY: 4.2 | ratio, gene yehZ: 7.1 | ratio, gene yeiQ: −2.7 | ratio, gene yfbM: 4.9 | ratio, gene yfcI: 3.1 | ratio, gene yfiA: −3.6 | ratio, gene yfiD: −2.6 | ratio, gene ygaG: 3.8 | ratio, gene ygaH: −3.3 | ratio, gene ygaM: 7.9 | ratio, gene ygaU: 5.1 | ratio, gene ygcO: −5.7 | ratio, gene ygeF: 5.2 | ratio, gene ygfQ: 3.7 | ratio, gene yggH: 5.7 | ratio, gene ygiA: 4.2 | ratio, gene ygiW: 5.2 | ratio, gene yhaF: −2.6 | ratio, gene yhcO: 4.4 | ratio, gene yhfG: 3.4 | ratio, gene yhgE: −2.9 | ratio, gene yhhZ: −2.6 | ratio, gene yhiE: 3.9 | ratio, gene yhiF: 2.9 | ratio, gene yhiW: 3.0 | ratio, gene yhjX: −9.6 | ratio, gene yi81_1: −3.2 | ratio, gene yiaG: 10.1 | ratio, gene yiaL: −2.9 | ratio, gene yibI: −3.1 | ratio, gene yidZ: −3.3 | ratio, gene yieJ: −2.9 | ratio, gene yieN: −3.8 | ratio, gene yigW_1: 3.8 | ratio, gene yihL: −8.0 | ratio, gene yihM: −3.3 | ratio, gene yihQ: 3.9 | ratio, gene yijC: 4.1 | ratio, gene yjbF: −3.5 | ratio, gene yjbO: 8.3 | ratio, gene yjcF: 3.1 | ratio, gene yjdB: 4.5 | ratio, gene yjiG: 3.1 | ratio, gene yjiZ: 3.8 | ratio, gene ykgE: −4.2 | ratio, gene ykgF: −3.1 | ratio, gene ylbB: −3.1 | ratio, gene ylcC: −3.6 | ratio, gene ylcD: 8.8 | ratio, gene ymdD: −4.3 | ratio, gene ymfJ: −3.4 | ratio, gene ymfM: 5.1 | ratio, gene ymgE: 3.9 | ratio, gene yncB: 3.4 | ratio, gene ynfL: 5.7 | ratio, gene yoaE: 2.8 | ratio, gene yodB: 6.2 | ratio, gene yohC: 12.0 | ratio, gene yohF: 2.8 | ratio, gene yohM: 7.7 | ratio, gene yqcD: −3.3 | ratio, gene yqgA: −2.9 | ratio, gene yqhD: −2.6 | ratio, gene yqhE: 4.0 | ratio, gene yqjC: 3.2 | ratio, gene yqjD: 5.8 | ratio, gene yqjE: 3.9 | ratio, gene yqjF: 3.6 | ratio, gene yqjG: 2.9 | ratio, gene yrbF: 3.1 | ratio, gene yrfG: −2.6 | ratio, gene ysgA: 2.8 | Fold, gene ais (AMP resistance): 14.1 | Fold, gene b2253 (AMP resistance): 8.4 | Fold, gene b2254 (AMP resistance): 5.5 | Fold, gene b2256 (AMP resistance): 4.0 | Fold, gene crcA (AMP resistance): 11.7 | Fold, gene Asr (Acid shock): 19.2 | Fold, gene Slp (Acid shock): 3.6 | Fold, gene dksA (Acid shock): 4.1 | Fold, gene dps (Acid shock): 4.4 | Fold, gene gabP (Acid shock): 8.2 | Fold, gene gabT (Acid shock): 6.5 | Fold, gene gadC (Acid shock): 24.9 | Fold, gene gadE (Acid shock): 3.9 | Fold, gene gadW (Acid shock): 3.0 | Fold, gene hdeA (Acid shock): 7.7 | Fold, gene hdeB (Acid shock): 7.9 | Fold, gene hdeD (Acid shock): 4.3 | Fold, gene nmpC (Acid shock): −6.6 | Fold, gene ybaS (Acid shock): 8.8 | Fold, gene ycaC (Acid shock): 7.4 | Fold, gene ydiZ (Acid shock): 9.1 | Fold, gene yeaQ (Acid shock): 6.9 | Fold, gene yebV (Acid shock): 6.9 | Fold, gene yiaG (Acid shock): 10.1 | Fold, gene amyA (Carbon metabolism): 5.8 | Fold, gene b2097 (Carbon metabolism): 8.1 | Fold, gene glk (Carbon metabolism): 3.4 | Fold, gene sfcA (Carbon metabolism): 5.8 | Fold, gene sfsA (Carbon metabolism): 6.4 | Fold, gene talA (Carbon metabolism): 11.7 | Fold, gene tktB (Carbon metabolism): 26.5 | Fold, gene clpB (Heat shock): −3.6 | Fold, gene dnaJ (Heat shock): −3.0 | Fold, gene dnaK (Heat shock): −2.8 | Fold, gene grpE (Heat shock): −3.0 | Fold, gene hslU (Heat shock): −3.2 | Fold, gene hslV (Heat shock): −3.0 | Fold, gene ibpB (Heat shock): −6.5 | Fold, gene lon (Heat shock): −2.9 | Fold, gene mopA (Heat shock): −3.6 | Fold, gene mopB (Heat shock): −9.1 | Fold, gene hemL (Mg^2+-stimulon): 8.3 | Fold, gene mgrB (Mg^2+-stimulon): 4.6 | Fold, gene mgtA (Mg^2+-stimulon): 7.5 | Fold, gene nagA (Mg^2+-stimulon): 3.7 | Fold, gene phoP (Mg^2+-stimulon): 2.8 | Fold, gene phoQ (Mg^2+-stimulon): 3.7 | Fold, gene rstB (Mg^2+-stimulon): 3.6 | Fold, gene nagB (Mg^2+-stlmulon(?)): 8.8 | Fold, gene narU (Nitrogen assimilation): 15.1 | Fold, gene narX (Nitrogen assimilation): −4.0 | Fold, gene narY (Nitrogen assimilation): 11.0 | Fold, gene narZ (Nitrogen assimilation): 4.9 | Fold, gene nirB (Nitrogen assimilation): −2.9 | Fold, gene nirC (Nitrogen assimilation): −3.0 | Fold, gene nirD (Nitrogen assimilation): −5.7 | Fold, gene nrfA (Nitrogen assimilation): −12.7 | Fold, gene bolA (Osmotic shock): 13 | Fold, gene dacC (Osmotic shock): 3.6 | Fold, gene katE (Osmotic shock): 9.9 | Fold, gene osmC (Osmotic shock): 7.2 | Fold, gene osmE (Osmotic shock): 11.7 | Fold, gene osmY (Osmotic shock): 6.4 | Fold, gene otsA (Osmotic shock): 5.2 | Fold, gene otsB (Osmotic shock): 5.6 | Fold, gene proW (Osmotic shock): 7.9 | Fold, gene yehX (Osmotic shock): 5.6 | Fold, gene yehY (Osmotic shock): 4.2 | Fold, gene yehZ (Osmotic shock): 7.1 | Fold, gene pspA (Phage shock): 6.7 | Fold, gene pspB (Phage shock): 6.9 | Fold, gene pspC (Phage shock): 15.8 | Fold, gene pspD (Phage shock): 13.5 | Fold, gene pspE (Phage shock): 9.4 | Fold, gene sfmC (Protein folding): 11.4 | Fold, gene aer (Redox): 14.3 | Fold, gene appB (Redox): 47.2 | Fold, gene appC (Redox): 3.5 | Fold, gene ndh (Redox): 3.1 | number of genes down-regulated [1]: 144 genes | number of genes up-regulated [1]: 200 genes
